Assay results published in patent publication US20130178483A1, “Methods and Compositions for Inhibition of Bone Resorption” (Pharmacyclics, Inc., priority 2011, published 2013).

Columns and labels:
[1] = tested on: BCR-activated calcium flux in Ramos cells; test: BCR-induced calcium flux assay in anti-IgM stimulated Ramos cells; settings: Homo sapiens, read-out: Ramos Cell Ca Flux IC50 (nM)
[2] = tested on: INA-6 MM cells in implanted human bone; test: SCID-hu model of human multiple myeloma bone disease; assay type: in vivo, SCID-hu mice; settings: 12 mg/kg, vs vehicle control
Source text: FIG. 22A-22F show inhibition of multiple myeloma (MM) cell growth and MM-induced bone lysis in a murine model of human MM by administration of a Btk inhibitor described herein. […] Tissue slides were stained with H&E and immunohistochemically analyzed for CD138 (MM), TRAP(OC), and ALP (OB). Original magnification, ×200 except for ALP (×400). […] Effects of Btk inhibitor treatment were also quantitated in the left (mouse L) and right (mouse R) normal mouse extremities (FIG. 22F)
Btk inhibition by the compounds described herein and suppression of MM cell growth and […] were studied in vivo in a mouse model of MM bone disease, the SCID-hu model (FIG. 22A). MM cell growth was quantitated by measuring soluble IL6R (sIL6R) secreted by INA-6 MM cells in murine blood, and mice were treated with a compound of Formula (A), (B), (C), or (D) following first detection of tumor growth. […] Histologic analysis and immunohistochemistry for CD138 and TRAP staining confirmed decreased numbers of MM cells and reduced bone resorption activity in the human bones retrieved from the mice treated with the compound, as compared with the control group (FIG. 22B).

[3] = tested on: human monocyte derived osteoclasts; test: Human monocyte derived osteoclastogenesis (M-CSF/RANKL), TRAP and actin staining; assay type: cell-based
Source text: Further, as depicted in FIG. 18, and FIG. 19, the BTK inhibitors described herein inhibit RANKL induced Btk, PLC-g, Erk and NF-kB activation of osteoclasts derived from human monocytes and murine RAW cells.
We confirmed by immunoblotting that activation of Btk mediates osteoclastogenesis induced by M-CSF and RANKL in CD14+ OC. precursor cells. Phosphorylation of Btk and its downstream PLCγ2 was induced by M-CSF/RANKL in CD14+ monocytes from human donors and mouse RAW 264.7 cells (FIG. 20A). […] At the end of 2-week culture of M-CSF/RANKL-stimulated normal donor monocytes (donor number>4) in plastic tissue culture plates, we observed a significant reduction in multinucleated mature Osteoclast (OC) numbers (TRAP+, >3 nuclei and >50 μm per OC cell, p<0.01), as well as irregular TRAP staining pattern of multinucleated OC influenced by the BtK inhibitor, in a dose-dependent fashion (FIG. 20C-E). To further assess the effects of PCI-32765 on osteoclastogenesis, OC precursor cells from human donors were cultured on glass cover slips, followed by immunofluorescence staining for actin cytoskeleton and pit formation assay for bone resorption activity. […] Most importantly, the Btk inhibitors described herein profoundly diminished bone erosion area formed by OCs cultured on dentine slices in pit formation assays, with or without dexamethasone (FIG. 21D).

[4] = 24 h post dose

CN(C)C/C=C/C(=O)N1CCCC(n2nc(-c3ccc(Oc4ccccc4)cc3)c3c(N)ncnc32)C1 (stereo not drawn) [Compound 15, (E)-1-(3-(4-amino-3-(4-phenoxyphenyl)-1H-pyrazolo[3,4-d]pyrimidin-1-yl)piperidin-1-yl)-4-(dimethylamino)but-2-en-1-one]
IC50 [1]: 36 nM

C=CC(=O)N1CCC[C@@H](n2nc(-c3ccc(Oc4ccccc4)cc3)c3c(N)ncnc32)C1 [PCI-32765]
MM-induced osteolysis / bone lysis in implanted human bone ([2]; micro-CT): significantly reduced osteolysis | osteogenic activity (ALP expression, ALP+/BS) in implanted human bone ([2]; p<0.01): enhanced osteogenic activity | numbers of mature OC, treated versus normal OC cultures ([3]; human OC precursor cells on glass cover slips): Significantly reduced numbers of mature OC | spreading area per cell and number of nuclei per OC ([3]; human OCs on glass cover slips, p<0.01): expanded spreading area per cell

C=CC(=O)N1CCCC(n2nc(-c3ccc(Oc4ccccc4)cc3)c3c(N)ncnc32)C1 (stereo not drawn) [Compound 4, 1-(3-(4-amino-3-(4-phenoxyphenyl)-1H-pyrazolo[3,4-d]pyrimidin-1-yl)piperidin-1-yl)prop-2-en-1-one]
levels twenty four hours post dose [4]: below the level of quantitation
